Results: ChEMBL document CHEMBL1150595, “Isolation and structure elucidation of radical scavengers from Thymus vulgaris leaves” (J Nat Prod, 2002)
Calls of active or inactive are those of the source. The calls are words filed in the database; no cut-off is given here.

Tests used:
[1] = system: Radical scavenging activity; test: Antioxidant activity assessed as DPPH radical scavenging activity after 1 min; type: functional
[2] = ABTS radical scavenging activity assessed as Trolox equivalent antioxidant capacity after 1 min; type: physicochemical
[3] = system: Radical scavenging activity; test: Antioxidant activity assessed as DPPH radical scavenging activity at drug-DPPH molar ratio of 1:2 after 15 mins; type: functional
[4] = ABTS radical scavenging activity assessed as Trolox equivalent antioxidant capacity after 6 mins; type: physicochemical; conditions: 0.1 h
[5] = system: Radical scavenging activity; test: Antioxidant activity assessed as DPPH radical scavenging activity after 3 mins; type: functional

For `O=C(/C=C/c1ccc(O)c(O)c1)O[C@H](Cc1ccc(O)c(O)c1)C(=O)O` [ROSMARINIC ACID], the inhibition [1] was 43%, the Ratio [2] was 1.5 and the inhibition [3] was 95%. It also gave a Ratio [4] of 1.54.
In the case of `O=C(/C=C/c1ccc(O)c(O/C(=C\c2ccc(O)c(O)c2)C(=O)O)c1)O[C@H](Cc1ccc(O)c(O)c1)C(=O)O`, the Activity [5] is reported as “Active”, the inhibition [1] is reported as 70% and the Ratio [2] is reported as 0.58. For the same compound, the inhibition [3] was 96% and the Ratio [4] was 0.69.
